Measurements reported in patent publication US6737383B1, “Herbicidal oxadiazolidines” (priority 1999, dated 2004).

Legend:
wild oat = test: Test B pre/postemergence wild oat; assay type: in vivo, Avena fatua; settings: for Wild oats plant response rating: scale of 0 to 10 where 0 is no effect and 10 is complete control
In short: (§1)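 Response is a visual 0-to-10 score relative to untreated plants, where 0 means no effect and 10 means complete control, taken twelve to sixteen days after application. Treatments went onto soil at planting and onto foliage of 1- to 4-leaf plants, using a surfactant-containing non-phytotoxic solvent.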

blackgrass = test: Test B pre/postemergence blackgrass; assay type: in vivo, Alopecurus myosuroides; settings: for Blackgrass plant response rating: scale of 0 to 10 where 0 is no effect and 10 is complete control
In short: as §1

rape = test: Test B pre/postemergence rape; assay type: in vivo, Brassica napus; settings: for Rape plant response rating: scale of 0 to 10 where 0 is no effect and 10 is complete control
In short: as §1

wheat = test: Test B pre/postemergence wheat; assay type: in vivo, Triticum aestivum; settings: for Wheat plant response rating: scale of 0 to 10 where 0 is no effect and 10 is complete control
In short: as §1

corn = test: Test B pre/postemergence corn; assay type: in vivo, Zea mays; settings: for Corn plant response rating: scale of 0 to 10 where 0 is no effect and 10 is complete control
In short: as §1

bamyardgrass = test: Test B flood test barnyardgrass; assay type: in vivo, Echinochloa crus-galli; settings: Pre-emergence
In short: (§2)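 Read-out is a visual response score from 0 (no effect) to 10 (complete control), assigned by comparison with untreated controls. Treatment was applied at the 2-leaf stage, and plants stayed in the greenhouse for twelve to sixteen days before scoring.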

velvetleaf = test: Test B pre/postemergence velvetleaf; assay type: in vivo, Abutilon theophrasti; settings: for Velvetleaf plant response rating: scale of 0 to 10 where 0 is no effect and 10 is complete control
In short: as §1

cocklebur = test: Test B pre/postemergence cocklebur; assay type: in vivo, Xanthium strumarium; settings: for Cocklebur plant response rating: scale of 0 to 10 where 0 is no effect and 10 is complete control
In short: as §1

surinam grass = test: Test B pre/postemergence surinam grass; assay type: in vivo, Brachiaria decumbens; settings: for B. signalgrass plant response rating: scale of 0 to 10 where 0 is no effect and 10 is complete control
In short: as §1

bedstraw = test: Test B pre/postemergence bedstraw; assay type: in vivo, Galium aparine; settings: Preemergence; for Bedstraw plant response rating: scale of 0 to 10 where 0 is no effect and 10 is complete control
In short: as §1

smallflower flatsedge = test: Test B flood test smallflower flatsedge; assay type: in vivo, Cyperus difformis; settings: Pre-emergence
In short: as §2

sugar beet = test: Test B pre/postemergence sugar beet; assay type: in vivo, Beta vulgaris; settings: for Sugarbeets plant response rating: scale of 0 to 10 where 0 is no effect and 10 is complete control
In short: as §1

purple nutsedge = test: Test B pre/postemergence purple nutsedge; assay type: in vivo, Cyperus rotundus; settings: for Nutsedge plant response rating: scale of 0 to 10 where 0 is no effect and 10 is complete control
In short: as §1

soybean = test: Test B pre/postemergence soybean; assay type: in vivo, Glycine max; settings: for Soybean plant response rating: scale of 0 to 10 where 0 is no effect and 10 is complete control
In short: as §1

pigweed = test: Test B pre/postemergence pigweed; assay type: in vivo, Amaranthus retroflexus; settings: for Redroot pigweed plant response rating: scale of 0 to 10 where 0 is no effect and 10 is complete control
In short: as §1

crabgrass = test: Test B pre/postemergence crabgrass; assay type: in vivo, Digitaria sanguinalis; settings: for Crabgrass plant response rating: scale of 0 to 10 where 0 is no effect and 10 is complete control
In short: as §1

[1] = Postemergence, Rate 125 g/ha, scale 0 to 10, 0 is no effect, 10 is complete control
[2] = Postemergence, Rate 250 g/ha, scale 0 to 10, 0 is no effect, 10 is complete control
[3] = Preemergence, Rate 62 g/ha, scale 0 to 10 (0 no effect, 10 complete control)
[4] = Rate 500 g/ha, Postemergence, scale 0 to 10, 0 no effect, 10 complete control
[5] = Rate 62 g/ha, flood test species, visual evaluation after twelve to sixteen days
[6] = Rate 125 g/ha, flood test species, scale 0 to 10 where 0 is no effect and 10 is complete control
[7] = Rate 250 g/ha, flood-test species, scale 0 to 10, 0 is no effect, 10 is complete control
[8] = Rate 500 g/ha, flood test species, scale 0 to 10 (0 no effect, 10 complete control)

**Q.** What does the source list for `CC(C)N(C(=O)n1oc(=O)n(C(C)CCl)c1=O)c1ccc(F)cc1` (stereo not shown) [Compound 367]?
**A.** Plant response rating, Wild oats (wild oat; [1]): 0; Plant response rating, Wild oats (wild oat; [2]): 0; Plant response rating, Wild oats (wild oat; [3]): 0; Wild oats plant response rating (0 to 10 scale) (wild oat; Preemergence, Rate 125 g/ha): 3; Wild oats plant response rating (wild oat; Preemergence, Rate 250 g/ha): 3; Wild oats plant response rating (wild oat; Preemergence, Rate 500 g/ha): 7; Wild oats plant response rating (wild oat; Rate 62 g/ha, Postemergence): 0; Plant response rating, Wild oats (wild oat; [4]): 8; Plant response rating, Blackgrass (blackgrass; [1]): 0; Plant response rating, Blackgrass (blackgrass; [2]): 0; Plant response rating, Blackgrass (blackgrass; [3]): 2; Blackgrass plant response rating (0 to 10 scale) (blackgrass; Preemergence, Rate 125 g/ha): 7; Blackgrass plant response rating (blackgrass; Preemergence, Rate 250 g/ha): 8; Blackgrass plant response rating (blackgrass; Preemergence, Rate 500 g/ha): 10; Blackgrass plant response rating (blackgrass; Rate 62 g/ha, Postemergence): 0; Plant response rating, Blackgrass (blackgrass; [4]): 8; Plant response rating, Rape (rape; [1]): 0; Plant response rating, Rape (rape; [2]): 0; Plant response rating, Rape (rape; [3]): 0; Rape plant response rating (0 to 10 scale) (rape; Preemergence, Rate 125 g/ha): 3; Rape plant response rating (rape; Preemergence, Rate 250 g/ha): 5; Rape plant response rating (rape; Preemergence, Rate 500 g/ha): 10; Rape plant response rating (rape; Rate 62 g/ha, Postemergence): 0; Plant response rating, Rape (rape; [4]): 4; Plant response rating, Wheat (wheat; [1]): 0; Plant response rating, Wheat (wheat; [2]): 0; Plant response rating, Wheat (wheat; [3]): 0; Wheat plant response rating (0 to 10 scale) (wheat; Preemergence, Rate 125 g/ha): 0; Wheat plant response rating (wheat; Preemergence, Rate 250 g/ha): 0; Wheat plant response rating (wheat; Preemergence, Rate 500 g/ha): 0; Wheat plant response rating (wheat; Rate 62 g/ha, Postemergence): 0; Plant response rating, Wheat (wheat; [4]): 6; Plant response rating, Corn (corn; [1]): 0; Plant response rating, Corn (corn; [2]): 0; Plant response rating, Corn (corn; [3]): 0; Corn plant response rating (0 to 10 scale) (corn; Preemergence, Rate 125 g/ha): 0; Corn plant response rating (corn; Preemergence, Rate 250 g/ha): 2; Corn plant response rating (corn; Preemergence, Rate 500 g/ha): 5; Corn plant response rating (corn; Rate 62 g/ha, Postemergence): 0; Plant response rating, Corn (corn; [4]): 0; Plant response rating, Barnyardgrass (0 to 10 scale, 0 is no effect, 10 is complete control) (bamyardgrass; [5]): 0; Barnyardgrass plant response rating (bamyardgrass; [6]): 0; Barnyardgrass plant response rating (bamyardgrass; [7]): 0; Barnyardgrass plant response rating (bamyardgrass; [8]): 0; Plant response rating, Velvetleaf (velvetleaf; [1]): 2; Plant response rating, Velvetleaf (velvetleaf; [2]): 2; Plant response rating, Velvetleaf (velvetleaf; [3]): 3; Velvetleaf plant response rating (0 to 10 scale) (velvetleaf; Preemergence, Rate 125 g/ha): 3; Velvetleaf plant response rating (velvetleaf; Preemergence, Rate 250 g/ha): 5; Velvetleaf plant response rating (velvetleaf; Preemergence, Rate 500 g/ha): 6; Velvetleaf plant response rating (velvetleaf; Rate 62 g/ha, Postemergence): 0; Plant response rating, Velvetleaf (velvetleaf; [4]): 3; Plant response rating, Cocklebur (cocklebur; [1]): 0; Plant response rating, Cocklebur (cocklebur; [2]): 0; Plant response rating, Cocklebur (cocklebur; [3]): 0; Cocklebur plant response rating (0 to 10 scale) (cocklebur; Preemergence, Rate 125 g/ha): 0; Cocklebur plant response rating (cocklebur; Preemergence, Rate 250 g/ha): 0; Cocklebur plant response rating (cocklebur; Rate 62 g/ha, Postemergence): 0; Plant response rating, Cocklebur (cocklebur; [4]): 2; Plant response rating, B. signalgrass (surinam grass; [1]): 0; Plant response rating, B. signalgrass (surinam grass; [2]): 0; Plant response rating, B. signalgrass (surinam grass; [3]): 0; B. signalgrass plant response rating (0 to 10 scale, 0 is no effect, 10 is complete control) (surinam grass; Preemergence, Rate 125 g/ha): 0; B. signalgrass plant response rating (surinam grass; Preemergence, Rate 250 g/ha): 4; B. signalgrass plant response rating (surinam grass; Preemergence, Rate 500 g/ha): 5; B. signalgrass plant response rating (surinam grass; Rate 62 g/ha, Postemergence): 0; Plant response rating, B. signalgrass (surinam grass; [4]): 4; Plant response rating, Bedstraw (bedstraw; Rate 62 g/ha, scale 0 to 10 (0 no effect, 10 complete control)): 10; Bedstraw plant response rating (0 to 10 scale) (bedstraw; Rate 125 g/ha): 10; Bedstraw plant response rating (bedstraw; Rate 250 g/ha): 10; Bedstraw plant response rating (bedstraw; Rate 500 g/ha): 10; Plant response rating, S. Flatsedge (0 to 10 scale, 0 is no effect, 10 is complete control) (smallflower flatsedge; [5]): 0; S. Flatsedge plant response rating (smallflower flatsedge; [6]): 0; S. Flatsedge plant response rating (smallflower flatsedge; [7]): 0; S. Flatsedge plant response rating (smallflower flatsedge; [8]): 0; Plant response rating, Sugarbeets (sugar beet; [1]): 0; Plant response rating, Sugarbeets (sugar beet; [2]): 0; Plant response rating, Sugarbeets (sugar beet; [3]): 2; Sugarbeets plant response rating (0 to 10 scale) (sugar beet; Preemergence, Rate 125 g/ha): 4; Sugarbeets plant response rating (sugar beet; Preemergence, Rate 250 g/ha): 7; Sugarbeets plant response rating (sugar beet; Preemergence, Rate 500 g/ha): 9; Sugarbeets plant response rating (sugar beet; Rate 62 g/ha, Postemergence): 0; Plant response rating, Sugarbeets (sugar beet; [4]): 7; Plant response rating, Nutsedge (purple nutsedge; [1]): 0; Plant response rating, Nutsedge (purple nutsedge; [2]): 0; Plant response rating, Nutsedge (purple nutsedge; [3]): 0; Nutsedge plant response rating (0 to 10 scale) (purple nutsedge; Preemergence, Rate 125 g/ha): 0; Nutsedge plant response rating (purple nutsedge; Preemergence, Rate 250 g/ha): 0; Nutsedge plant response rating (purple nutsedge; Preemergence, Rate 500 g/ha): 0; Nutsedge plant response rating (purple nutsedge; Rate 62 g/ha, Postemergence): 0; Plant response rating, Nutsedge (purple nutsedge; [4]): 3; Plant response rating, Soybean (soybean; [1]): 1; Plant response rating, Soybean (soybean; [2]): 1; Plant response rating, Soybean (soybean; [3]): 0; Soybean plant response rating (0 to 10 scale) (soybean; Preemergence, Rate 125 g/ha): 0; Soybean plant response rating (soybean; Preemergence, Rate 250 g/ha): 0; Soybean plant response rating (soybean; Preemergence, Rate 500 g/ha): 0; Soybean plant response rating (soybean; Rate 62 g/ha, Postemergence): 0; Plant response rating, Soybean (soybean; [4]): 2; Plant response rating, Redroot pigweed (pigweed; [1]): 0; Plant response rating, Redroot pigweed (pigweed; [2]): 0; Plant response rating, Redroot pigweed (pigweed; [3]): 10; Redroot pigweed plant response rating (0 to 10 scale) (pigweed; Preemergence, Rate 125 g/ha): 10; Redroot pigweed plant response rating (pigweed; Preemergence, Rate 250 g/ha): 10; Redroot pigweed plant response rating (pigweed; Preemergence, Rate 500 g/ha): 10; Redroot pigweed plant response rating (pigweed; Rate 62 g/ha, Postemergence): 0; Plant response rating, Redroot pigweed (pigweed; [4]): 7; Plant response rating, Crabgrass (crabgrass; [1]): 2; Plant response rating, Crabgrass (crabgrass; [2]): 8; Plant response rating, Crabgrass (crabgrass; [3]): 6; Crabgrass plant response rating (0 to 10 scale) (crabgrass; Preemergence, Rate 125 g/ha): 9; Crabgrass plant response rating (crabgrass; Preemergence, Rate 250 g/ha): 10; Crabgrass plant response rating (crabgrass; Preemergence, Rate 500 g/ha): 10; Crabgrass plant response rating (crabgrass; Rate 62 g/ha, Postemergence): 0; Plant response rating, Crabgrass (crabgrass; [4]): 8
